Data reported in patent EP4785795A1 (priority 2023, dated 2025).

Tested on: Aspergillus flavus
Format: cell-based

C[C@H]1NC(=O)CNC1=O [cyclo (D-Ala-Gly)] was tested, and the “aflatoxin production inhibiting activity” value was “did not exhibit sufficient aflatoxin production inhibiting activity”.
For O=C1CNC(=O)CN1 [cyclo (Gly-Gly)], the “aflatoxin production inhibiting activity” value was “did not exhibit sufficient aflatoxin production inhibiting activity”.
In the case of CC[C@@H]1NC(=O)CNC1=O [cyclo (L-Abu(2)-Gly)], the “aflatoxin production inhibiting activity” value was “extremely excellent aflatoxin production inhibiting activity” and the “aflatoxin production inhibiting activity relative to the natural product cyclo (L-Ala-Gly)” value (based on the IC50 (concentration that reduces the amount of aflatoxin B1 to 1/2), 25°C, 4 days) was 75 fold.
